This passage reports T/C results from PubChem BioAssay AID342 (DTP/NCI, 2004).

Values joined by “and” are separate entries in the source; they are usually repeats but may differ in a detail not shown here. Equal entries are not always repeated.

The assay relates to Swiss mice, Sarcoma 180 sc, mean tumor weight T/C. Kind of assay: NCI In Vivo Anticancer Drug Screen. Data for tumor model Sarcoma 180 (subcutaneous) in Swiss mice. The following applies: endpoint: mean tumor weight, higher = larger tumour. In short, it runs like this: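 T/C ratio: treated over vehicle-treated controls, measuring survival or tumor size in transplanted-tumor mice.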

Consider `CC(=O)[C@H]1CC[C@H]2[C@@H]3C[C@H](F)C4=CC(=O)CC[C@]4(C)[C@@]3(F)[C@@H](O)C[C@]12C`, for which the T/C was 65 % of control (dose: 25.0 mg/kg/injection, schedule: Q01DX007 (sc), vehicle: steriod suspending solution); 49 % of control (dose: 37.0 mg/kg/injection, schedule: Q01DX007 (sc), vehicle: steriod suspending solution); 41 % of control (dose: 282.0 mg/kg/injection, schedule: Q01DX007 (sc), vehicle: steriod suspending solution); 36 % of control (dose: 423.0 mg/kg/injection, schedule: Q01DX007 (sc), vehicle: steriod suspending solution).

Consider `O=C1C=CC(=O)N1c1ccc2c(c1)C(Br)c1ccccc1-2` (stereo not given), for which the T/C runs as follows: (dose: 3.0 mg/kg/injection, schedule: Q#A X014 (ip), vehicle: carboxymethylcellulose (CMC)) 97 % of control; (dose: 5.5 mg/kg/injection, schedule: Q#A X014 (ip), vehicle: carboxymethylcellulose (CMC)) 73 % of control; (dose: 11.0 mg/kg/injection, schedule: Q#A X014 (ip), vehicle: carboxymethylcellulose (CMC)) 109 % of control; (dose: 11.0 mg/kg/injection, schedule: Q#A X014 (ip), vehicle: methylcellulose (MC)) 45 % of control and 52 % of control; (dose: 16.5 mg/kg/injection, schedule: Q#A X014 (ip), vehicle: carboxymethylcellulose (CMC)) 102 % of control; (dose: 16.5 mg/kg/injection, schedule: Q#A X014 (ip), vehicle: methylcellulose (MC)) 32 % of control and 50 % of control. Besides, the T/C is 99 % of control (dose: 25.0 mg/kg/injection, schedule: Q#A X014 (ip), vehicle: carboxymethylcellulose (CMC)); 40 % of control (dose: 25.0 mg/kg/injection, schedule: Q#A X014 (ip), vehicle: methylcellulose (MC)); 89 % of control (dose: 37.5 mg/kg/injection, schedule: Q#A X014 (ip), vehicle: carboxymethylcellulose (CMC)).

`CCOC(=O)C1=C(C)NC(C)=C(C(=O)OCC)C1C`: the T/C is 50 % of control (dose: 3.1 mg/kg/injection, schedule: Q01DX007 (ip), vehicle: other); 33 % of control (dose: 6.25 mg/kg/injection, schedule: Q01DX007 (ip), vehicle: other); 42 % of control (dose: 31.2 mg/kg/injection, schedule: Q01DX007 (ip), vehicle: other); 60 % of control (dose: 31.25 mg/kg/injection, schedule: Q01DX007 (ip), vehicle: other); 57 % of control (dose: 62.5 mg/kg/injection, schedule: Q01DX007 (oral), vehicle: other); 98 % of control (dose: 62.5 mg/kg/injection, schedule: Q01DX007 (sc), vehicle: other). For the same compound, the T/C was 60 % of control (dose: 62.5 mg/kg/injection, schedule: Q02DX004 (ip), vehicle: other); 60 % of control (dose: 62.5 mg/kg/injection, schedule: Q03DX003 (ip), vehicle: other); 69 % of control (dose: 100.0 mg/kg/injection, schedule: Q01DX007 (ip), vehicle: other); 84 % of control (dose: 125.0 mg/kg/injection, schedule: Q01DX007 (oral), vehicle: other); 57 % of control (dose: 125.0 mg/kg/injection, schedule: Q01DX007 (sc), vehicle: other); 50 % of control (dose: 125.0 mg/kg/injection, schedule: Q02DX004 (ip), vehicle: other). Also, the T/C is 60 % of control (dose: 125.0 mg/kg/injection, schedule: Q03DX003 (ip), vehicle: other); 29 % of control (dose: 175.0 mg/kg/injection, schedule: Q01DX007 (ip), vehicle: other); 76 % of control (dose: 250.0 mg/kg/injection, schedule: Q01DX007 (oral), vehicle: other); 60 % of control (dose: 250.0 mg/kg/injection, schedule: Q01DX007 (sc), vehicle: other); 36 % of control (dose: 250.0 mg/kg/injection, schedule: Q02DX004 (ip), vehicle: other); 54 % of control (dose: 250.0 mg/kg/injection, schedule: Q03DX003 (ip), vehicle: other).

Take `N#[N+]c1cnc([O-])[nH]c1=O`: the T/C is 103 % of control (dose: 1.0 mg/kg/injection, schedule: Q01DX007 (ip), vehicle: carboxymethylcellulose (CMC)); 102 % of control (dose: 2.0 mg/kg/injection, schedule: Q01DX007 (ip), vehicle: carboxymethylcellulose (CMC)); 105 % of control (dose: 4.0 mg/kg/injection, schedule: Q01DX007 (ip), vehicle: carboxymethylcellulose (CMC)); 95 % of control (dose: 8.0 mg/kg/injection, schedule: Q01DX007 (ip), vehicle: carboxymethylcellulose (CMC)).
